According to patent publication US20050234063A1, “Therapeutic agent for brain hemorrhage” (priority 2002, published 2005):

Tests used:
[1] = tested on: cerebral infarction models; settings: various cerebral infarction models; reported; cited from earlier work
[2] = disclosed in Patent Reference 1 (WO 96/10023); cited from earlier work
[3] = tested on: ischemic reperfusion model; settings: Non-patent Reference 5; cited from earlier work
[4] = tested on: cerebral hemorrhage model; experiment: Neurological symptom score in collagenase-induced rat cerebral hemorrhage model; type: in vivo; settings: 10 or 20 mg/kg/h; for neurological symptom score on the 2nd day after collagenase injection, versus physiological saline administration group / neurological symptom score on the 14th day after collagenase injection, versus physiological saline administration group: 24 h intravenous continuous injection started 30 min after collagenase, Steel test
Procedure: A cerebral hemorrhage model was prepared by the following procedure by adding a partial modification to the method of Rosenberg et al. (Stroke, 21, 801-807, 1990). Each of male Sprague-Dawley rats (240 to 330 g in body weight, Charles River Japan) was subjected to continuous anesthesia with 1% halothane under spontaneous respiration and fixed on a stereotaxic instrument. The skull was exposed by carrying out median skin incision of the head of the animal, and a small bone window was opened on the skull using a dental drill (C730, MINIMO) at a position of 0.2 mm in the front side (A: +0.2 mm) and 3.0 mm in the left side (L: +3.0 mm) based on dBregma in accordance with the Paxinos's brain pictorial book (Paxinos G and Watson C, The rat brain in the stereotaxic coordinates (1986) Academic Press, New Yolk). An administration needle of 30G was inserted to a depth of 6.0 mm (H: −6.0 mm) from the skull and then pulled out 0.3 mm to ensure an administration space (central part of the striatum). A solution of collagenase (10 units/ml, type IV, Lot 99H8641, Sigma) was injected at a flow rate of 0.2 μl/min for 7 minutes (1.4 μl) using a micro-syringe pump (Neuroscience Syringe Pump 100, Muromachi). The administration needle was slowly pulled out after completion of the injection, scalp suture was carried out, and then the animal was revived by warming up under an incandescent lamp. It has been reported that a cerebral hemorrhage locally limited to the striatum is generated 0.5 to 4 hours after injection of collagenase in this rat cerebral hemorrhage model (Stroke, 27, 2312-2320, 1996).
As the administration of medicament, zonampanel monohydrate (hereinafter, compound a) was used. After 30 minutes of the collagenase injection, intravenous injection of zonampanel was started via a canula indwelled in the common jugular vein. The compound a was dissolved in physiological saline at a concentration of 10 mg/5 ml or 20 mg/5 ml and then subjected to 24 hours of intravenous continuous injection under shading at a dose of 10 mg/5 ml/kg/h (compound a (10 mg/kg) administration group) or 20 mg/5 ml/kg/h (compound a (20 mg/kg) administration group). In the control group, physiological saline was subjected to 24 hours of intravenous continuous injection at a dose of 5 ml/kg/h (physiological saline administration group). The number of animals in respective groups was 6 animals in the compound a (10 mg/kg) administration group, 9 animals in the compound a (20 mg/kg) administration group, and 9 animals in the physiological saline administration group.
Staring after 30 minutes of the injection of collagenase into the striatum, the compound a was subjected to 24 hours of intravenous continuous injection at a dose of 10 mg/kg/h (compound a (10 mg/kg) administration group, 6 cases) or 20 mg/kg/h (compound a (20 mg/kg) administration group, 9 cases), and a neurological symptom of each animal was observed before the injection of collagenase and on the 2nd and 14th days after the collagenase injection. Physiological saline was administered to the control group (physiological saline administration group, 9 cases).
Scoring criteria of the neurological symptom are as follows. This was scored by 5 steps (O to 4) based on the behavior of each animal when the waist part of the animal was pushed toward the front side.
Score 1: Turning right is predominant but sometimes turns left.
Score 0: Normal, no left-right turning inclination. […]

AMPA receptor = settings: disclosed in Patent Reference 1 (WO 96/10023); cited from earlier work
[5] = tested on: subarachnoid bleeding model animal; settings: subarachnoid bleeding model animal injected with one's own blood; Non-patent Reference 6; cited from earlier work

| Structure (SMILES) | effect on progress of infarction foci [1] | water-solubility [2] | time after drug administration from which the neurological symptoms improving action is observed [3] [hours] | neurological symptom score on the 2nd day after collagenase injection, versus physiological saline administration group ([4]; listed as zonampanel, monohydrate) | neurological symptom score on the 2nd day after collagenase injection, versus physiological saline administration group ([4]; monohydrate) | neurological symptom score on the 14th day after collagenase injection, versus physiological saline administration group ([4]; p<0.05, listed as zonampanel, monohydrate) | neurological symptom score on the 14th day after collagenase injection, versus physiological saline administration group ([4]; p<0.05, monohydrate) | change of neurological symptom score as the days elapsed, in comparison with the control ([4]; 24 h intravenous continuous injection, days 0 to 14 (FIG. 1)) | AMPA receptor binding activity (AMPA receptor) | effect on vascular permeability acceleration [5] |
| --- | --- | --- | --- | --- | --- | --- | --- | --- | --- | --- |
| O.O=C(O)Cn1c(=O)c(=O)[nH]c2cc([N+](=O)[O-])c(-n3ccnc3)cc21 [compound a, [7-(1H-imidazol-1-yl)-6-nitro-2,3-dioxo-3,4-dihydroquinoxalin-1(2H)-yl]acetic acid monohydrate] | inhibit progress of infarction foci | high | ≥ 24 | does not show significant effect | almost the same | significant improving effect | significantly light | improving tendency | potent and selective | – |
| CC1=NN=C(c2ccc(N)cc2)c2cc3c(cc2C1)OCO3 [GYK152466] | – | – | – | – | – | – | – | – | – | inhibits vascular permeability acceleration |
